Measurements published in patent publication US9095126B2, “Targeting TGF-β as a therapy for Alzheimer's disease” (Yale University, priority 2008, dated 2015).

B1: BMP-4: recombinant BMP-4, bone morphogenic protein (protein, UniProt P12644 293-408, looked up)
Bone morphogenetic protein 4: SPKHHSQRARKKNKNCRRHSLYVDFSDVGWNDWIVAPPGYQAFYCHGDCPFPLADHLNSTNHAIVQTLVNSVNSSIPKACCVPTELSAISMLYLDEYDKVVLKNYQEMVVEGCGCR

Legend:
peripheral macrophages = test: Aβ phagocytosis assay, Aβ488 pulse-chase, confocal microscopy; type: cell-based, mouse; conditions: primary macrophages with ALK5 inhibitor 1 h, pulsed 4 h with pre-aggregated Aβ488, chased 15 min (FIG. 9B-9C)
Procedure: FIG. 9, comprising FIGS. 9A-9F, is a series of images depicting Activin-like kinase (ALK) inhibition increases the ratio of phospho-SMAD1/5/8 to phospho-SMAD2/3 and promotes macrophage Aβ phagocytosis. FIG. 9A depicts peripheral MΦ pre-treated with a dose range (0.1, 1.0, or 10.0 μM) of ALK5 inhibitors (SB-505124 or SB-431542) for 1 h and then cultured in the presence or absence of recombinant TGF-β1 (5 ng/mL) for 30 min as indicated. Upper panels show Western blots for phospho (p) or total forms of SMAD2/3 or SMAD1/5/8. Lower panel is a histogram showing the ratio of pSMAD1/5/8 to pSMAD2/3. […] FIG. 9C depicts quantification of confocal images (n=3 randomly selected 10× magnification fields per group, group means±s.d.), and Aβ488-labeled area is shown in the upper graph, and numbers of Aβ488 phagocytic cells/field are shown in the lower graph. FIGS. 9D-9F depict gender-dependent reductions in Aβ levels in Tg2576+ animals and anti-inflammatory responses in brains of crossed mice. Biochemical analyses of (FIG. 9D) detergent-soluble and (FIG. 9E) guanidine HCl-soluble Aβ1-42 and Aβ1-42/Aβ1-40 in male vs. female Tg2576 positive mice (irrespective of CD11c-DNR transgene status). FIG. 9F depicts Q-PCR results for Tnfa (left) or Il10 (right) expression (relative to Hprt1) shown for four groups of mice, and statistical comparisons vs. wild-type mice. […]

[1] = test system: bone morphogenic protein-activated Smad1/5/8 signaling; test: Western blot for phosphorylated Smad1/5/8 (alternate bone morphogenic protein-activated signaling) in peripheral macrophages; type: cell-based, mouse; conditions: for ratio of phospho-Smad1/5/8 to phospho-Smad2/3: ALK5 inhibitor treatment alone, 0.1, 1.0 or 10.0 μM, peripheral macrophages (FIG. 9A)
Procedure: (§1) Cortical microglia were isolated from neonatal (1-2 day-old) CD11c-DNR or wild-type C57BL/6 mice according to previously published methods (Tan et al., 1999 Science 286: 2352-2355; Town et al., 2006 J. Immunol, 176: 3804-3812), Briefly, brains were isolated under sterile conditions and cerebral cortices were incubated in tripsin-EDTA (Invitrogen-Gibco) for 15 min at 37° C. Complete RPMI 1640 medium (supplemented with 10% FCS and 1 mM penicillin-streptomycin) was then added and brains were dissociated by trituration. Subsequently, cerebral cortex material was plated in 25 cm^2 flasks (Fisher Scientific), and the media was changed every 2-3 days. When the appearance of microglia was noted (typically 14 days after plating), culture media was exchanged with RPMI 1640 medium supplemented with 5% FCS, and the microglia were isolated by shaking in an incubator-shaker at 200 rpm for 2 h at 37° C. Peripheral MΦ were isolated from adult CD11c-DNR or wild-type C57BL/6 mice according to standard immunological methods by intraperitoneally (i.p.) injecting mice with 900 μL of 3% (w/v) sterile thioglycollate solution diluted in PBS. Four days later, mice were injected i.p. with 10 mL of ice-cold PBS for peritoneal lavage. Peripheral MΦ were then plated with complete medium (DMEM supplemented with 10% FCS and 1 mM penicillin streptomycin) and allowed to rest overnight. […] Microglia or peripheral MΦ from wild-type or CD11c-DNR mice were plated at 1×10^6 cells/well in 6-well tissue culture plates (BD Biosciences-Falcon) containing complete RPMI 1640 media or complete DMEM, respectively. These cells were then treated with a dose-range of recombinant TGF-β1 (R&D Systems; 1, 5, or 10 ng/mL) in the presence or absence of lipopolysachharide (LPS, 50 ng/mL) for 30 min. In a separate set of experiments, these cells were pre-treated for 1 h with ALK5 inhibitors SB-505124 or SB-431542 (Sigma-Aldrich; used at 0.1, 1.0, or 10.0 μM) and 5 ng/mL of recombinant TGF-β1 was added. For Aβ phagocytosis assay, MΦ were pulse-chased with Aβ as described elsewhere herein. Cells were rinsed in ice-cold PBS three times, and lysed ice-cold lysis buffer (containing 20 mM Tris-HCl pH 7.5, 150 mM NaCl, 1 mM Na2EDTA, 1 mM EGTA, 1% v/v Triton X-100, 2.5 mM sodium pyrophosphate, 1 mM glycerophosphate, 1 mM Na3VO4, 1 μg/ml leupeptin, and 1 mM PMSF). After lysis for 30 min on ice, cell lysates were centrifuged at 15,000×g for 30 min, and supernatants were aliquoted for Western blot analysis. Protein concentration was determined using the Bradford method, and aliquots corresponding to 50 μg of protein were run out on 12% Nu-PAGE™ polyacrylamide gels (Invitrogen) and proteins were transferred electrophoretically to Immobilon-P polyvinylidene difluoride membranes (Millipore). Membranes were blocked in blocking buffer (5% w/v nonfat dry milk in Tris-buffered saline containing 1% v/v Tween-20) for 3 h at ambient temperature and incubated overnight at 4° C. with primary polyclonal antibodies directed against total or phosphorylated SMAD2/3, SMAD1/5/8, PAK2, or ERK1/2 (Cell Signaling Technology). Membranes were then rinsed three times for 5 min each in dH2O, and incubated with anti-rabbit secondary antibody conjugated with horseradish peroxidase (diluted at 1/2000 in blocking buffer; GE Healthcare-Amersham Biosciences). After an additional three rinses for 5 min each in dH2O, the membranes were incubated for 5 min at ambient temperature with the enhanced chemiluminescence substrate (Thermo Fisher Scientific-Pierce Biotechnology), exposed to film, and developed.

[2] = test system: TGF-β-activated Smad2/3 signaling; test: Western blot for phosphorylated Smad2/3 (canonical TGF-β-activated signaling) in primary macrophages/microglia; type: cell-based, mouse; conditions: for TGF-β1-induced Smad2/3 phosphorylation: peripheral macrophages pre-treated 1 h with 0.1, 1.0 or 10.0 μM ALK5 inhibitor, then TGF-β1 5 ng/mL for 30 min (FIG. 9A); for phosphorylated Smad2/3 after TGF-β1 challenge: TGF-β1 1, 5 or 10 ng/ml with or without LPS 50 ng/ml, 30 min (FIG. 7A)
Procedure: as §1

[3] = test system: p21-activated kinase 2 (PAK2); test: Western blot for phosphorylated PAK2 in peripheral macrophages; type: cell-based, mouse; conditions: wild-type peripheral macrophages; for PAK2 phosphorylation: 30 min, TGF-β1 5 ng/mL alone, BMP-2 50-200 ng/mL or BMP-4 12.5-50 ng/mL (FIG. 12B)
Procedure: Cortical microglia were isolated from neonatal (1-2 day-old) CD11c-DNR or wild-type C57BL/6 mice according to previously published methods (Tan et al., 1999 Science 286: 2352-2355; Town et al., 2006 J. Immunol, 176: 3804-3812), Briefly, brains were isolated under sterile conditions and cerebral cortices were incubated in tripsin-EDTA (Invitrogen-Gibco) for 15 min at 37° C. Complete RPMI 1640 medium (supplemented with 10% FCS and 1 mM penicillin-streptomycin) was then added and brains were dissociated by trituration. Subsequently, cerebral cortex material was plated in 25 cm^2 flasks (Fisher Scientific), and the media was changed every 2-3 days. When the appearance of microglia was noted (typically 14 days after plating), culture media was exchanged with RPMI 1640 medium supplemented with 5% FCS, and the microglia were isolated by shaking in an incubator-shaker at 200 rpm for 2 h at 37° C. Peripheral MΦ were isolated from adult CD11c-DNR or wild-type C57BL/6 mice according to standard immunological methods by intraperitoneally (i.p.) injecting mice with 900 μL of 3% (w/v) sterile thioglycollate solution diluted in PBS. Four days later, mice were injected i.p. with 10 mL of ice-cold PBS for peritoneal lavage. Peripheral MΦ were then plated with complete medium (DMEM supplemented with 10% FCS and 1 mM penicillin streptomycin) and allowed to rest overnight.
Microglia or peripheral MΦ from wild-type or CD11c-DNR mice were plated at 1×10^6 cells/well in 6-well tissue culture plates (BD Biosciences-Falcon) containing complete RPMI 1640 media or complete DMEM, respectively. These cells were then treated with a dose-range of recombinant TGF-β1 (R&D Systems; 1, 5, or 10 ng/mL) in the presence or absence of lipopolysachharide (LPS, 50 ng/mL) for 30 min. […] Protein concentration was determined using the Bradford method, and aliquots corresponding to 50 μg of protein were run out on 12% Nu-PAGE™ polyacrylamide gels (Invitrogen) and proteins were transferred electrophoretically to Immobilon-P polyvinylidene difluoride membranes (Millipore). […]

microglia = conditions: exogenous addition of TGF-β1 to microglia (Wyss-Coray et al., 2001); cited from earlier work
[4] = peripherally isolated macrophages, exogenous TGF-β1 5 ng/mL, 30 min (FIG. 9A)
[5] = wild-type peripheral macrophages, 30 min, TGF-β1 5 ng/mL alone, BMP-2 50-200 ng/mL or BMP-4 12.5-50 ng/mL (FIG. 12B)

Molecule | macrophage Aβ phagocytosis (Aβ488-labeled area, Aβ488 phagocytic cells/field) (peripheral macrophages) | ratio of phospho-Smad1/5/8 to phospho-Smad2/3 [1] | TGF-β1-induced Smad2/3 phosphorylation [2] | Smad1/5/8 phosphorylation [1, 5] | Smad2/3 phosphorylation [2, 5] | PAK2 phosphorylation [3] | other results
NC(=O)c1ccc(-c2nc(-c3ccc4c(c3)OCO4)c(-c3ccccn3)[nH]2)cc1 [SB-431542, reference compound] | increased Aβ phagocytosis in a dose-dependent fashion | increased | blocked by ALK5 inhibition in a dose-dependent manner |  |  |  | 
Cc1cccc(-c2[nH]c(C(C)(C)C)nc2-c2ccc3c(c2)OCO3)n1 [SB-505124, reference compound] | increased Aβ phagocytosis in a dose-dependent fashion | increased | blocked by ALK5 inhibition in a dose-dependent manner |  |  |  | 
TGF-β1: recombinant TGF-β1 (R&D Systems), cytokine |  |  |  | little impact | promoted Smad2/3 phosphorylation | little impact | Smad1/5/8 phosphorylation ([1]; CD11c-DNR macrophages, exogenous TGF-β1 and LPS together (FIG. 7B)): further augmented; Smad1/5/8 phosphorylation [1, 4]: increased phosphorylation; phosphorylated Smad2/3 after TGF-β1 challenge ([2]; CD11c-DNR macrophages): nonresponsive; phosphorylated Smad2/3 after TGF-β1 challenge ([2]; CD11c-DNR microglia): responded to challenge; Smad2/3 phosphorylation ([2]; TGF-β1 5 ng/mL added to the BMP treatment conditions, wild-type peripheral macrophages): further promoted; Smad2/3 phosphorylation [2, 4]: increased phosphorylation; phosphorylated Smad2/3 after TGF-β1 challenge ([2]; wild-type microglia and macrophages): showed phosphorylated Smad2/3; BMP-induced PAK2 phosphorylation ([3]; TGF-β1 5 ng/mL added to the BMP treatment conditions): inhibited; Aβ uptake by microglia (microglia): promotes increased Aβ uptake
B1 |  |  |  | promoted | did not impact | promoted | ratio of pSmad1/5/8 to pSmad2/3 ([1]; BMP monotreatment compared with TGF-β1 treatment alone, wild-type peripheral macrophages): increased
